Like-named read-outs stand apart in the source and are kept apart here.
Key:
[1] = tested on: HCV genotype 1a (H77 strain) replicon in HUH-7 cells; assay: HCV replicon luciferase reporter assay, genotype 1a; format: cell-based; details: Hepatitis C virus, Huh-7, 72 h, HCV genotype 1a replicon luciferase, 3 days incubation
Method in brief: (§1)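 Replicon inhibition for both genotypes was measured as Renilla luciferase signal (EnduRen, 7.5 μM final, 2 h) after 3-day, 37° C exposure of replicon-bearing HUH-7 cells in 4% FCS DMEM, 0.5% DMSO. The 1b construct carries S1179I; the 1a H77 construct carries P1496L and S2204I. Twenty-point, 3-fold dilutions were fitted four-parametrically for EC50, and CC50 was taken from multiplexed Cell Titer-Blue.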

[2] = tested on: HCV genotype 1b (Con1) replicon in HUH-7 cells; assay: HCV replicon luciferase reporter assay, genotype 1b; format: cell-based; details: Hepatitis C virus, Huh-7, 72 h, HCV genotype 1b replicon luciferase, 3 days incubation
Method in brief: as §1

## C[C@H]1CC/C=C\[C@@H]2C[C@@]2(C(=O)NS(=O)(=O)C2(C)CC2)NC(=O)[C@@H]2C[C@@H](Oc3nccc4c5c(ccc34)N(C)CCO5)CN2C(=O)[C@@H](NC(=O)C(=O)N(C)C)[C@H](C)C1 [Compound 5305, N1-((2R,6S,7R,9S,13aS,14aR,16aS,Z)-7,9-dimethyl-2-((4-methyl-3,4-dihydro-2H-[1,4]oxazino[2,3-f]isoquinolin-7-yl)oxy)-14a-(((1-methylcyclopropyl)sulfonyl)carbamoyl)-5,16-dioxo-1,2,3,5,6,7,8,9,10,11,13a,14,14a,15,16,16a-hexadecahydrocyclopropa[e]pyrrolo[1,2-a][1,4]diazacyclopentadecin-6-yl)-N2,N2-dimethyloxalamide]
[1]; read-out: LE_1a (EC50, range)
  EC50: 4.82 to 103 nM
[2]; read-out: LE_1b (EC50, range)
  EC50: 4.82 to 103 nM

## C[C@@H]1CC/C=C\[C@@H]2C[C@@]2(C(=O)NS(=O)(=O)C2(C)CC2)NC(=O)[C@@H]2C[C@@H](Oc3nccc4c5c(ccc34)N(C)CCO5)CN2C(=O)[C@@H](NC(=O)C(=O)N(C)C)[C@H](C)C1 [Compound 5306, N1-((2R,6S,7R,9R,13aS,14aR,16aS,Z)-7,9-dimethyl-2-((4-methyl-3,4-dihydro-2H-[1,4]oxazino[2,3-f]isoquinolin-7-yl)oxy)-14a-(((1-methylcyclopropyl)sulfonyl)carbamoyl)-5,16-dioxo-1,2,3,5,6,7,8,9,10,11,13a,14,14a,15,16,16a-hexadecahydrocyclopropa[e]pyrrolo[1,2-a][1,4]diazacyclopentadecin-6-yl)-N2,N2-dimethyloxalamide]
[1]; read-out: LE_1a (EC50)
  EC50: 2.97 nM
[1]; read-out: LE_1a (EC50, range)
  EC50: < 5.46 nM
[2]; read-out: LE_1b (EC50)
  EC50: 2.45 nM
[2]; read-out: LE_1b (EC50, range)
  EC50: < 5.46 nM

## CC[C@@H]1C[C@@H](C)CC/C=C\[C@@H]2C[C@@]2(C(=O)NS(=O)(=O)C2CC2)NC(=O)[C@@H]2C[C@@H](Oc3nccc4c5c(ccc34)N(C)CCO5)CN2C(=O)[C@H]1NC(=O)OC(C)(C)C [Compound 5307, tert-butyl ((2R,6S,7R,9S,13aS,14aR,16aS,Z)-14a-((cyclopropylsulfonyl)carbamoyl)-7-ethyl-9-methyl-2-((4-methyl-3,4-dihydro-2H-[1,4]oxazino[2,3-f]isoquinolin-7-yl)oxy)-5,16-dioxo-1,2,3,5,6,7,8,9,10,11,13a,14,14a,15,16,16a-hexadecahydrocyclopropa[e]pyrrolo[1,2-a][1,4]diazacyclopentadecin-6-yl)carbamate]
[1]; read-out: LE_1a (EC50, range)
  EC50: 4.82 to 103 nM
[2]; read-out: LE_1b (EC50, range)
  EC50: < 5.46 nM

## CC[C@@H]1C[C@H](C)CC/C=C\[C@@H]2C[C@@]2(C(=O)NS(=O)(=O)C2CC2)NC(=O)[C@@H]2C[C@@H](Oc3nccc4c5c(ccc34)N(C)CCO5)CN2C(=O)[C@H]1NC(=O)OC(C)(C)C [Compound 5308, tert-butyl ((2R,6S,7R,9R,13aS,14aR,16aS,Z)-14a-((cyclopropylsulfonyl)carbamoyl)-7-ethyl-9-methyl-2-((4-methyl-3,4-dihydro-2H-[1,4]oxazino[2,3-f]isoquinolin-7-yl)oxy)-5,16-dioxo-1,2,3,5,6,7,8,9,10,11,13a,14,14a,15,16,16a-hexadecahydrocyclopropa[e]pyrrolo[1,2-a][1,4]diazacyclopentadecin-6-yl)carbamate]
[1]; read-out: LE_1a (EC50, range)
  EC50: < 5.46 nM
[2]; read-out: LE_1b (EC50, range)
  EC50: < 5.46 nM

## CC[C@@H]1C[C@@H](C)CC/C=C\[C@@H]2C[C@@]2(C(=O)NS(=O)(=O)C2CC2)NC(=O)[C@@H]2C[C@@H](Oc3nccc4c5c(ccc34)N(C)CCO5)CN2C(=O)[C@H]1NC(=O)OC(C)(C)C(F)(F)F [Compound 5309, 1,1,1-trifluoro-2-methylpropan-2-yl((2R,6S,7R,9S,13aS,14aR,16aS,Z)-14a-((cyclopropylsulfonyl)carbamoyl)-7-ethyl-9-methyl-2-((4-methyl-3,4-dihydro-2H-[1,4]oxazino[2,3-f]isoquinolin-7-yl)oxy)-5,16-dioxo-1,2,3,5,6,7,8,9,10,11,13a,14,14a,15,16,16a-hexadecahydrocyclopropa[e]pyrrolo[1,2-a][1,4]diazacyclopentadecin-6-yl)carbamate]
[1]; read-out: LE_1a (EC50, range)
  EC50: 4.82 to 103 nM
[2]; read-out: LE_1b (EC50, range)
  EC50: < 5.46 nM

## CC[C@@H]1C[C@H](C)CC/C=C\[C@@H]2C[C@@]2(C(=O)NS(=O)(=O)C2CC2)NC(=O)[C@@H]2C[C@@H](Oc3nccc4c5c(ccc34)N(C)CCO5)CN2C(=O)[C@H]1NC(=O)OC(C)(C)C(F)(F)F [Compound 5310, 1,1,1-trifluoro-2-methylpropan-2-yl((2R,6S,7R,9R,13aS,14aR,16aS,Z)-14a-((cyclopropylsulfonyl)carbamoyl)-7-ethyl-9-methyl-2-((4-methyl-3,4-dihydro-2H-[1,4]oxazino[2,3-f]isoquinolin-7-yl)oxy)-5,16-dioxo-1,2,3,5,6,7,8,9,10,11,13a,14,14a,15,16,16a-hexadecahydrocyclopropa[e]pyrrolo[1,2-a][1,4]diazacyclopentadecin-6-yl)carbamate]
[1]; read-out: LE_1a (EC50, range)
  EC50: < 5.46 nM
[2]; read-out: LE_1b (EC50, range)
  EC50: < 5.46 nM

## [2H]C([2H])([2H])C(OC(=O)N[C@@H]1C(=O)N2C[C@H](Oc3nccc4c5c(ccc34)N(C)CCO5)C[C@H]2C(=O)N[C@]2(C(=O)NS(=O)(=O)C3CC3)C[C@H]2/C=C\CC[C@H](C)C[C@H]1CC)(C([2H])([2H])[2H])C(F)(F)F [Compound 5311, 1,1,1,3,3,3-hexadeutero-2-(trifluoromethyl)propan-2-yl((2R,6S,7R,9S,13aS,14aR,16aS,Z)-14a-((cyclopropylsulfonyl)carbamoyl)-7-ethyl-9-methyl-2-((4-methyl-3,4-dihydro-2H-[1,4]oxazino[2,3-f]isoquinolin-7-yl)oxy)-5,16-dioxo-1,2,3,5,6,7,8,9,10,11,13a,14,14a,15,16,16a-hexadecahydrocyclopropa[e]pyrrolo[1,2-a][1,4]diazacyclopentadecin-6-yl)carbamate]
[1]; read-out: LE_1a (EC50, range)
  EC50: < 5.46 nM
[2]; read-out: LE_1b (EC50, range)
  EC50: < 5.46 nM

## [2H]C([2H])([2H])C(OC(=O)N[C@@H]1C(=O)N2C[C@H](Oc3nccc4c5c(ccc34)N(C)CCO5)C[C@H]2C(=O)N[C@]2(C(=O)NS(=O)(=O)C3CC3)C[C@H]2/C=C\CC[C@@H](C)C[C@H]1CC)(C([2H])([2H])[2H])C(F)(F)F [Compound 5312, 1,1,1,3,3,3-hexadeutero-2-(trifluoromethyl)propan-2-yl((2R,6S,7R,9R,13aS,14aR,16aS,Z)-14a-((cyclopropylsulfonyl)carbamoyl)-7-ethyl-9-methyl-2-((4-methyl-3,4-dihydro-2H-[1,4]oxazino[2,3-f]isoquinolin-7-yl)oxy)-5,16-dioxo-1,2,3,5,6,7,8,9,10,11,13a,14,14a,15,16,16a-hexadecahydrocyclopropa[e]pyrrolo[1,2-a][1,4]diazacyclopentadecin-6-yl)carbamate]
[1]; read-out: LE_1a (EC50, range)
  EC50: < 5.46 nM
[2]; read-out: LE_1b (EC50, range)
  EC50: < 5.46 nM

## CC[C@@H]1C[C@@H](C)CC/C=C\[C@@H]2C[C@@]2(C(=O)NS(=O)(=O)C2CC2)NC(=O)[C@@H]2C[C@@H](Oc3nccc4c5c(ccc34)N(C)CCO5)CN2C(=O)[C@H]1NC(=O)O[C@@H]1C[C@@H]2C[C@@H]2C1 [Compound 5313, (1R,3r,5 S)-bicyclo[3.1.0]hexan-3-yl((2R,6S,7R,9S,13aS,14aR,16aS,Z)-14a-((cyclopropylsulfonyl)carbamoyl)-7-ethyl-9-methyl-2-((4-methyl-3,4-dihydro-2H-[1,4]oxazino[2,3-f]isoquinolin-7-yl)oxy)-5,16-dioxo-1,2,3,5,6,7,8,9,10,11,13a,14,14a,15,16,16a-hexadecahydrocyclopropa[e]pyrrolo[1,2-a][1,4]diazacyclopentadecin-6-yl)carbamate]
[1]; read-out: LE_1a (EC50, range)
  EC50: < 5.46 nM
[2]; read-out: LE_1b (EC50, range)
  EC50: < 5.46 nM

## CC[C@@H]1C[C@H](C)CC/C=C\[C@@H]2C[C@@]2(C(=O)NS(=O)(=O)C2CC2)NC(=O)[C@@H]2C[C@@H](Oc3nccc4c5c(ccc34)N(C)CCO5)CN2C(=O)[C@H]1NC(=O)O[C@@H]1C[C@@H]2C[C@@H]2C1 [Compound 5314, (1R,3r,5S)-bicyclo[3.1.0]hexan-3-yl((2R,6S,7R,9R,13aS,14aR,16aS,Z)-14a-((cyclopropylsulfonyl)carbamoyl)-7-ethyl-9-methyl-2-((4-methyl-3,4-dihydro-2H-[1,4]oxazino[2,3-f]isoquinolin-7-yl)oxy)-5,16-dioxo-1,2,3,5,6,7,8,9,10,11,13a,14,14a,15,16,16a-hexadecahydrocyclopropa[e]pyrrolo[1,2-a][1,4]diazacyclopentadecin-6-yl)carbamate]
[1]; read-out: LE_1a (EC50)
  EC50: 1.59 nM
[1]; read-out: LE_1a (EC50, range)
  EC50: < 5.46 nM
[2]; read-out: LE_1b (EC50)
  EC50: 1.06 nM
[2]; read-out: LE_1b (EC50, range)
  EC50: < 5.46 nM

## CC[C@@H]1C[C@@H](C)CC/C=C\[C@@H]2C[C@@]2(C(=O)NS(=O)(=O)C2CC2)NC(=O)[C@@H]2C[C@@H](Oc3nccc4c5c(ccc34)N(C)CCO5)CN2C(=O)[C@H]1NC(=O)NC(C)(C)C [Compound 5315, (2R,6S,7R,9S,13aS,14aR,16aS,Z)-6-(3-(tert-butyl)ureido)-N-(cyclopropylsulfonyl)-7-ethyl-9-methyl-2-((4-methyl-3,4-dihydro-2H-[1,4]oxazino[2,3-f]isoquinolin-7-yl)oxy)-5,16-dioxo-1,2,3,5,6,7,8,9,10,11,13a,14,14a,15,16,16a-hexadecahydrocyclopropa[e]pyrrolo[1,2-a][1,4]diazacyclopentadecine-14a-carboxamide]
[1]; read-out: LE_1a (EC50, range)
  EC50: 4.82 to 103 nM
[2]; read-out: LE_1b (EC50, range)
  EC50: 4.82 to 103 nM

## CC[C@@H]1C[C@H](C)CC/C=C\[C@@H]2C[C@@]2(C(=O)NS(=O)(=O)C2CC2)NC(=O)[C@@H]2C[C@@H](Oc3nccc4c5c(ccc34)N(C)CCO5)CN2C(=O)[C@H]1NC(=O)NC(C)(C)C [Compound 5316, (2R,6S,7R,9R,13aS,14aR,16aS,Z)-6-(3-(tert-butyl)ureido)-N-(cyclopropylsulfonyl)-7-ethyl-9-methyl-2-((4-methyl-3,4-dihydro-2H-[1,4]oxazino[2,3-f]isoquinolin-7-yl)oxy)-5,16-dioxo-1,2,3,5,6,7,8,9,10,11,13a,14,14a,15,16,16a-hexadecahydrocyclopropa[e]pyrrolo[1,2-a][1,4]diazacyclopentadecine-14a-carboxamide]
[1]; read-out: LE_1a (EC50, range)
  EC50: < 5.46 nM
[2]; read-out: LE_1b (EC50, range)
  EC50: < 5.46 nM

— US9499550B2 (BRISTOL-MYERS SQUIBB COMPANY, priority 2012, dated 2016)
